Non-standard residues stand in square brackets, D forms with d. No end group written: not given here.
Columns and labels:
[1] = system: edema caused by intradermal injection of recombinant human IL-1β in the mouse ear; assay: IL-1β-induced ear edema with centrally administered α-MSH and receptor antagonists; assay type: in vivo, BALB/c mice
Description: See Macaluso, A., McCoy, D., Ceriani, G., Watanabe, T., Biltz, J., Catania, A., and Lipton, J. M., Anti-inflammatory Influences of a-MSH Molecules: Central Neurogenic and Peripheral Actions, 14(4), J. of Neuroscience 2377-2382 (1994). Female BALB/c mice (Simonsen Laboratories, Gilroy, Calif.), 7-8 weeks old, were housed at 23-25° C. in groups not exceeding five animals per cage [28 cm (L)×18 cm (W)×13 cm (H)]. Before the experiments they were acclimatized for not less than 1 week before experimentation to standard lighting and temperature conditions with food and water freely available.
Mice were anesthetized with 10% pentobarbital sodium solution (1 mg/mouse, 50 mg/ml, Nembutal sodium solution; Abbott Laboratories, North Chicago, Ill.). Baseline ear thickness measurements were taken with a spring-loaded micrometer (Swiss Precision Instruments, Los Angeles, Calif.). Ear thickness was expressed in centimeters and was measured at least twice at each time point. The average thickness of unstimulated ears was […]. Inflammation was induced by injecting 20 μl of recombinant human IL-1β (1500 U; Genzyme, Cambridge, Mass.) directly into the skin (intradermally) of one ear of each mouse using a 28 gauge needle (Hiltz et al., 1992). Measures of ear thickness were repeated 4 and 6 hr later, while the mice were under sodium pentobarbital anesthesia.
Several agents were administered at the time of ear challenge to pharmacologically block certain receptors: atropine (Sigma Chemical Co.; 150 μg i.p.), a muscarinic receptor blocker that acts on autonomic end-organ receptors, was chosen because of links between inflammation and modulation of pain and the finding that muscarinic antagonists increase pain threshold (Hartvig et al., 1989); phentolamine (Sigma; 150 μg i.p.) an agent that competes for occupancy of α-adrenergic receptors; propranolol (Sigma; 150 μg, i.p.; 30 μg, i.c.v.), a nonspecific competitive antagonist for β-adrenergic receptors.
Because of the size of the experiments and the requirement for several shipments of animals over time, several experiments were performed, each with complete treatment and control groups drawn from the same shipment of mice. Omnibus analysis of variance techniques (Dynastat, Washington, D.C.) were used to test overall differences among group means. Tukey's protected t test was used to compare individual means. Probability values of <0.05 were considered significant.

[2] = system: carrageenan-induced swelling in rat paws; assay: Rat paw edema test (carrageenan); assay type: in vivo, Sprague-Dawley rats; conditions: 100 mg/kg intraperitoneal, rats
Description: A second in vivo bioassay for anti-inflammatory activity was conducted in which the action of the tripeptide (SEQ ID NO: 1) was compared to that of hydrocortisone. In this assay, the two agents were given at similar doses and tested for their independent ability to inhibit carrageenan-induced swelling in rat paws. This assay, the rat paw edema test, was conducted generally as it is typically performed in the art, for example, as described by Winter et al. (1962), Proc. Soc. Exp. Biol. Med., 111:544 or in U.S. Pat. No. 4,150,137.
Briefly, the assay was performed as follows. Each of twenty-four male Sprague-Dawley rats was assigned to one of four groups: Tripeptide treatment and controls (matched according to body weight and initial paw volume), hydrocortisone treatment and matched controls. The volume of the right rear paw of the test and control animals was determined using standard procedures and a mercury displacement volumetric technique. […] One hour later 0.5 ml of 1% lambda carrageenan in saline solution was injected into the right rear paw of the animals and the paw volume was again recorded (baseline measure). For comparison of the effects of the two treatments, paw volume of experimental animals measured at hourly intervals was expressed as a percentage of the volume change of their respective matched controls.

C. albicans = C. albicans colony forming units (candidacidal activity); assay type: cell-based; conditions: for relative potency in reducing C. albicans viability: FIG. 2, 10^−4M melanocortin peptides
Description: C. albicans (clinical isolate) was obtained from the collection of the Department of Microbiology, Ospedale Maggiore di Milano and maintained on Sabouraud's agar slants and periodically transferred to Sabouraud's agar plates and incubated for 48 hours at 28° C. To prepare a stationary growth phase yeast, a colony was taken from the agar plate and transferred into 30 ml Sabouraud-dextrose broth and incubated for 72 hours at 32° C. Cells were centrifuged and suspended in Hank's balanced salt solution (“HBSS”) to the desired concentration. Viability, determined by the exclusion of 0.01% methylene blue, remained >98%.
C. albicans (1×10^6/ml in HBSS) was incubated in the presence or absence or α-MSH(1-13) (SEQ ID NO: 3) or (11-13) (SEQ ID NO: 1) at concentrations in the range of 10^−15 M to 10^−6 M for 2 hours at 37° C. Cells were then washed in cold distilled water and diluted with HBSS to a concentration of 100 organisms/ml. One-ml aliquots were dispensed on blood agar plates and incubated for 48 hours at 37° C. Organism viability was estimated from the number of colonies formed.
In subsequent experiments using familiar procedures we compared activity of α-MSH(4-10) (SEQ ID NO: 10), (6-13) (SEQ ID NO: 2), (11-13) (SEQ ID NO: 1), ACTH(1-39) (SEQ ID NO: 9), (18-39) (SEQ ID NO: 11) and fluconazole, the latter an established antifungal agent. Melanocortin peptides and fluconazole were tested in concentrations of 10^−6 M to 10^−4 M. There were at least six replicates for each concentration of peptide. […]

[3] = system: inflammation induced in the ear by picryl chloride application; assay: Picryl chloride-induced ear swelling; assay type: in vivo, BALB/C mice; conditions: for % Inhibition 3 h: 3 h after picryl chloride; for % Inhibition 6 h: 6 h after picryl chloride; for overall effect on inflammation (ANOVA): 10-80 μg IP, 3 and 6 h
Description: Hiltz, M. E., Catania, A., Lipton, J. M., Anti-Inflammatory Activity of aα-MSH (11-13) Analogs: Influence of Alteration in Stereochemistry, 12 Peptides 767 (1981). […] Female BALB/C mice (Simonsen Laboratories), 7 weeks old, were housed at 23-25° C. in groups of no more than 5 per cage [28 cm (L)×18 cm (W)×13 cm (H)]. They were allowed to acclimatize to standard lighting and temperature conditions for at least 1 week, with food and water available ad lib, before the experiment began. Five to ten animals were randomly assigned to each treatment group each test day, and all experiments were repeated at least twice to confirm reproducibility. To reduce error due to slight differences in responses to the irritant of animals from different shipments, tests of each agent were performed as separate experiments in which experimental and control animals were drawn from the same shipment.
In the experiments each animal was anesthetized with 1 mg of pentobarbital sodium solution ([…], Nembutal, Abbott Laboratories, Abbott park, Ill.). Baseline ear thickness was measured for both ears with a spring-loaded micrometer (Swiss Precision Instruments, Los Angeles, Calif.). Ear thickness was expressed in units of 10^−3 cm; the average thickness of unstimulated ears was approximately 25-30×10^−3 cm. After baseline measurements were taken, one of six solutions was injected IP. […] The doses of the tripeptides were 10 μg (2.6×.10^−8 M), 20 μg (5.2×.10^−8 M), 40 μg (1.04×.10^−7 M), and 80 μg (2.08×.10^−7 M). Immediately after saline or α-MSH injection, a micropipette was used to coat both sides of each ear with 10 μl […] of a 0.5% picryl chloride (Polysciences, Warrington, Pa.) solution in acetone.
Ear thickness was remeasured 3 and 6 h after picryl chloride application. Swelling was determined by subtracting baseline thickness from the measurements for each ear at 3 and 6 h. The differences for both ears were then averaged for the final analysis.
Repeated-measure ANOVA techniques were used to determine if there was an overall difference among group data for each peptide tested in separate experiments. In those cases in which the ANOVA yielded significant results, Dunnett's test was then used to compare the effects of peptide doses with control (saline) data for each of the two time periods, 3 and 6 h.

[4] = antagonist administered intraperitoneally

## CC(C)NCC(O)COc1ccc(CC(N)=O)cc1 (stereo not drawn) [atenolol]
[1]; [4]
  effect of antagonist on the anti-inflammatory influence of centrally administered α-MSH(1-13): little inhibition

## CN1[C@@H]2CC[C@H]1C[C@@H](OC(=O)C(CO)c1ccccc1)C2 (stereo partly drawn) [atropine]
[1]; [4]
  effect of antagonist on the anti-inflammatory influence of centrally administered α-MSH(1-13): did not alter

## COc1ccc(OC)c(C(O)C(C)NC(C)(C)C)c1 (stereo not drawn) [butoxamine]
[1]; [4]
  effect of antagonist on the anti-inflammatory influence of centrally administered α-MSH(1-13): significantly reduced

## C[C@]12CCC(=O)C=C1CC[C@@H]1[C@@H]2[C@@H](O)C[C@@]2(C)[C@H]1CC[C@]2(O)C(=O)CO [hydrocortisone, reference compound]
[2]; between 1 and 4 hours
  anti-inflammatory activity (inhibition of paw edema): nearly identical anti-inflammatory activity
[2]; first hour after carrageenan injection
  decrease in paw inflammation: ~30%

## Cc1ccc(N(CC2=NCCN2)c2cccc(O)c2)cc1 [phentolamine]
[1]; [4]
  effect of antagonist on the anti-inflammatory influence of centrally administered α-MSH(1-13): did not alter

## CC(C)NCC(O)COc1cccc2ccccc12 (stereo not drawn) [propranolol]
[1]; [4]
  effect of antagonist on the anti-inflammatory influence of centrally administered α-MSH(1-13): inhibited
[1]; antagonist injected centrally
  effect of antagonist on the anti-inflammatory influence of centrally administered α-MSH(1-13): little effect

## ACTH(1-39): adrenocortitrophic hormone (ACTH) peptide 1-39 (SYSMEHFRWGKPVGKKRRPVKVYPAGEDDEASEAFPLEF; listed as Homo sapiens) [reference compound]
C. albicans
  relative potency in reducing C. albicans viability: did not reduce

## ACTH(18-39): ACTH fragment (18-39) (CLIP) (RPVKVYPAGEDDEASEAFPLEF; Designed polypeptide with anti-inflammatory, anti-microbial, anti-fungal, and anti-viral properties.) [reference compound]
C. albicans
  relative potency in reducing C. albicans viability: did not reduce

## Ac-[D-Lys^11, D-Val^13]α-MSH(11-13)-NH2 (Ac-[dK]-Pro-[dV]-NH2; SMILES CC(=O)N[C@H](CCCCN)C(=O)N1CCC[C@H]1C(=O)N[C@@H](C(N)=O)C(C)C)
[3]; 10 μg IP
  % Inhibition 3 h: 22%
  % Inhibition 6 h: 22%
[3]; 20 μg IP
  % Inhibition 3 h: 55%
  % Inhibition 6 h: 46%
[3]; 40 μg IP
  % Inhibition 3 h: 42%
  % Inhibition 6 h: 41%
[3]; 80 μg IP
  % Inhibition 3 h: 40%
  % Inhibition 6 h: 44%
[3]
  overall effect on inflammation (ANOVA): significant overall reduction in inflammation

## Ac-[D-Lys^11]α-MSH(11-13)-NH2 (Ac-[dK]-Pro-Val-NH2; SMILES CC(=O)N[C@H](CCCCN)C(=O)N1CCC[C@H]1C(=O)N[C@H](C(N)=O)C(C)C)
[3]; 10 μg IP
  % Inhibition 3 h: 23%
  % Inhibition 6 h: 17%
[3]; 20 μg IP
  % Inhibition 3 h: 25%
  % Inhibition 6 h: 16%
[3]; 40 μg IP
  % Inhibition 3 h: 35%
  % Inhibition 6 h: 37%
[3]; 80 μg IP
  % Inhibition 3 h: 34%
  % Inhibition 6 h: 29%
[3]
  overall effect on inflammation (ANOVA): significantly reduced inflammation

## Ac-[D-Pro^12]α-MSH(11-13)-NH2 (Ac-Lys-[dP]-Val-NH2; SMILES CC(=O)N[C@@H](CCCCN)C(=O)N1CCC[C@@H]1C(=O)N[C@H](C(N)=O)C(C)C)
[3]; 10 μg IP
  % Inhibition 3 h: 4%
  % Inhibition 6 h: 8%
[3]; 20 μg IP
  % Inhibition 3 h: 11%
  % Inhibition 6 h: 5%
[3]; 40 μg IP
  % Inhibition 3 h: 10%
  % Inhibition 6 h: 8%
[3]; 80 μg IP
  % Inhibition 3 h: 8%
  % Inhibition 6 h: 6%
[3]
  overall effect on inflammation (ANOVA): no significant effect on inflammation

## Ac-[D-Val^13]α-MSH(11-13)-NH2 (Ac-Lys-Pro-[dV]-NH2; SMILES CC(=O)N[C@@H](CCCCN)C(=O)N1CCC[C@H]1C(=O)N[C@@H](C(N)=O)C(C)C) [Ac-[D-Pro^13]α-MSH(11-13)-NH2]
[3]; 10 μg IP
  % Inhibition 3 h: 24%
  % Inhibition 6 h: 23%
[3]; 20 μg IP
  % Inhibition 3 h: 48%
  % Inhibition 6 h: 54%
[3]; 40 μg IP
  % Inhibition 3 h: 39%
  % Inhibition 6 h: 45%
[3]; 80 μg IP
  % Inhibition 3 h: 41%
  % Inhibition 6 h: 29%
[3]
  overall effect on inflammation (ANOVA): marked inhibitory influence

## VPK-Ac-CC-Ac-KPV (Ac-CKPV; also: disulfide dimer via Cys)
C. albicans
  effectiveness against microbes relative to α-MSH(11-13): at least as effective as α-MSH(11-13)
C. albicans; FIG. 1, incubation 2 hours at 37° C.
  C. albicans colony forming units (CFU): inhibited
